Tested on: Rattus norvegicus
Details: short-term, duration: 28 days, oral, gavage, Sprague-Dawley

`O=C(O)C(F)(F)C(F)(F)C(F)(F)C(F)(F)C(F)(F)C(F)(F)C(F)(F)C(F)(F)C(F)(F)F` [Perfluorodecanoic acid] showed an LOEL (F, Clinical chemistry_Alanine aminotransferase) of 1.25 mg/kg-day, an NOEL (F, Clinical chemistry_Albumin) of 2.5 mg/kg-day and an LOEL (F, Clinical chemistry_Albumin/globulin ratio) of 0.312 mg/kg-day. It also gave an LOEL (F, Clinical chemistry_Alkaline phosphatase) of 0.312 mg/kg-day, an LOEL (F, Clinical chemistry_Aspartate aminotransferase) of 1.25 mg/kg-day and an LOEL (F, Clinical chemistry_Cholesterol) of 2.5 mg/kg-day. The LOEL (F, Clinical chemistry_Creatinine kinase) was 1.25 mg/kg-day, the LOEL (F, Clinical chemistry_Direct bilirubin) was 1.25 mg/kg-day and the LOEL (F, Clinical chemistry_Free thyroxine) was 1.25 mg/kg-day. It also gave an LOEL (F, Clinical chemistry_Globulin) of 0.312 mg/kg-day, an LOEL (F, Clinical chemistry_Indirect bilirubin) of 2.5 mg/kg-day and an LOEL (F, Clinical chemistry_Sorbitol dehydrogenase) of 2.5 mg/kg-day. For the same compound, the LOEL (F, Clinical chemistry_Testosterone) was 0.312 mg/kg-day, the NOEL (F, Clinical chemistry_Thyroid stimulating hormone) was 2.5 mg/kg-day and the LOEL (F, Clinical chemistry_Total bile acids) was 1.25 mg/kg-day. The LOEL (F, Clinical chemistry_Total bilirubin) was 1.25 mg/kg-day, the NOEL (F, Clinical chemistry_Total protein) was 2.5 mg/kg-day and the NOEL (F, Clinical chemistry_Total thyroxine) was 2.5 mg/kg-day. It also gave an LOEL (F, Clinical chemistry_Total triiodothyronine) of 1.25 mg/kg-day, an NOEL (F, Clinical chemistry_Triglycerides) of 2.5 mg/kg-day and an LOEL (F, Gene expression_Acox1) of 0.156 mg/kg-day. It also gave an LOEL (F, Gene expression_Cyp2b1) of 0.156 mg/kg-day, an LOEL (F, Gene expression_Cyp2b2) of 0.156 mg/kg-day and an LOEL (F, Gene expression_Cyp4a1) of 0.625 mg/kg-day. The LOEL (F, Hematology_Erythrocytes) was 1.25 mg/kg-day, the LOEL (F, Hematology_Hematocrit) was 1.25 mg/kg-day and the LOEL (F, Hematology_Hemoglobin) was 1.25 mg/kg-day. For the same compound, the LOEL (F, Hematology_Mean corpuscular hemoglobin concentration) was 2.5 mg/kg-day, the LOEL (F, Hematology_Mean corpuscular volume) was 1.25 mg/kg-day and the LOEL (F, Hematology_Platelets) was 2.5 mg/kg-day. It also gave an LOEL (F, Hematology_Reticulocytes) of 1.25 mg/kg-day, an LOEL (F, Nonneoplastic effects_Bone marrow - Hypocellularity) of 2.5 mg/kg-day and an NOEL (F, Nonneoplastic effects_Forestomach - Epithelium, hyperplasia) of 2.5 mg/kg-day. For the same compound, the NOEL (F, Nonneoplastic effects_Forestomach - Inflammation, chronic active) was 2.5 mg/kg-day, the NOEL (F, Nonneoplastic effects_Kidney - Nephropathy, chronic progressive) was 2.5 mg/kg-day and the LOEL (F, Nonneoplastic effects_Liver - Hepatocyte, Necrosis) was 2.5 mg/kg-day. It also gave an LOEL (F, Nonneoplastic effects_Liver - Hepatocyte, cytoplasmic alteration) of 0.625 mg/kg-day, an LOEL (F, Nonneoplastic effects_Liver - Hepatocyte, hypertrophy) of 1.25 mg/kg-day and an LOEL (F, Nonneoplastic effects_Liver - Hepatocyte, vacuolization cytoplasmic) of 2.5 mg/kg-day. The NOEL (F, Nonneoplastic effects_Lymph nodes - Mandibular, atrophy) was 2.5 mg/kg-day, the NOEL (F, Nonneoplastic effects_Lymph nodes - Mesenteric, atrophy) was 2.5 mg/kg-day and the NOEL (F, Nonneoplastic effects_Nose - Olfactory epithelium, degeneration) was 2.5 mg/kg-day. It also gave an NOEL (F, Nonneoplastic effects_Nose - Olfactory epithelium, hyperplasia) of 2.5 mg/kg-day, an NOEL (F, Nonneoplastic effects_Nose - Olfactory epithelium, inflammation, suppurative) of 2.5 mg/kg-day and an NOEL (F, Nonneoplastic effects_Nose - Respiratory epithelium, hyperplasia) of 2.5 mg/kg-day. It also gave an NOEL (F, Nonneoplastic effects_Nose - Respiratory epithelium, inflammation, chronic active) of 2.5 mg/kg-day, an NOEL (F, Nonneoplastic effects_Spleen - Atrophy) of 2.5 mg/kg-day and an NOEL (F, Nonneoplastic effects_Spleen - Extramedullary hematopoiesis, increased) of 2.5 mg/kg-day. It also gave an LOEL (F, Nonneoplastic effects_Thymus - Atrophy) of 2.5 mg/kg-day, an NOEL (F, Nonneoplastic effects_Thymus - Lymphocyte, apoptosis) of 2.5 mg/kg-day and an NOEL (F, Nonneoplastic effects_Thyroid gland - Follicular cell hypertrophy) of 2.5 mg/kg-day. For the same compound, the LOEL (F, Organ weights_Liver - Absolute) was 0.156 mg/kg-day, the LOEL (F, Organ weights_Liver - Relative) was 0.156 mg/kg-day and the LOEL (F, Organ weights_R. adrenal gland - Absolute) was 2.5 mg/kg-day. For the same compound, the NOEL (F, Organ weights_R. adrenal gland - Relative) was 2.5 mg/kg-day, the LOEL (F, Organ weights_R. kidney - Absolute) was 2.5 mg/kg-day and the LOEL (F, Organ weights_R. kidney - Relative) was 0.625 mg/kg-day. The LOEL (F, Organ weights_Spleen - Absolute) was 1.25 mg/kg-day, the LOEL (F, Organ weights_Spleen - Relative) was 0.625 mg/kg-day and the LOEL (F, Organ weights_Thymus - Absolute) was 2.5 mg/kg-day. For the same compound, the LOEL (F, Organ weights_Thymus - Relative) was 2.5 mg/kg-day, the LOEL (F, Organ weights_Thyroid gland - Absolute) was 0.312 mg/kg-day and the LOEL (F, Organ weights_Thyroid gland - Relative) was 0.312 mg/kg-day. The LOEL (F, Reproductive toxicity_Altered estrous cyclicity) was 1.25 mg/kg-day, the NOEL (F, Survival rates) was 2.5 mg/kg-day and the LOEL (F, body weight) was 1.25 mg/kg-day. It also gave an LOEL (M, Clinical chemistry_Alanine aminotransferase) of 0.312 mg/kg-day, an LOEL (M, Clinical chemistry_Albumin) of 1.25 mg/kg-day and an LOEL (M, Clinical chemistry_Albumin/globulin ratio) of 0.156 mg/kg-day. The LOEL (M, Clinical chemistry_Alkaline phosphatase) was 0.312 mg/kg-day, the LOEL (M, Clinical chemistry_Aspartate aminotransferase) was 0.156 mg/kg-day and the LOEL (M, Clinical chemistry_Cholesterol) was 0.156 mg/kg-day. The NOEL (M, Clinical chemistry_Creatinine kinase) was 2.5 mg/kg-day, the LOEL (M, Clinical chemistry_Direct bilirubin) was 1.25 mg/kg-day and the LOEL (M, Clinical chemistry_Free thyroxine) was 0.312 mg/kg-day. It also gave an LOEL (M, Clinical chemistry_Globulin) of 0.156 mg/kg-day, an LOEL (M, Clinical chemistry_Indirect bilirubin) of 1.25 mg/kg-day and an NOEL (M, Clinical chemistry_Sorbitol dehydrogenase) of 2.5 mg/kg-day. For the same compound, the LOEL (M, Clinical chemistry_Testosterone) was 1.25 mg/kg-day, the NOEL (M, Clinical chemistry_Thyroid stimulating hormone) was 2.5 mg/kg-day and the LOEL (M, Clinical chemistry_Total bile acids) was 1.25 mg/kg-day. For the same compound, the LOEL (M, Clinical chemistry_Total bilirubin) was 1.25 mg/kg-day, the LOEL (M, Clinical chemistry_Total protein) was 0.156 mg/kg-day and the NOEL (M, Clinical chemistry_Total thyroxine) was 2.5 mg/kg-day. It also gave an NOEL (M, Clinical chemistry_Total triiodothyronine) of 2.5 mg/kg-day, an LOEL (M, Clinical chemistry_Triglycerides) of 1.25 mg/kg-day and an LOEL (M, Gene expression_Acox1) of 0.156 mg/kg-day. For the same compound, the LOEL (M, Gene expression_Acyl-CoA oxidase) was 0.156 mg/kg-day, the LOEL (M, Gene expression_Cyp2b1) was 0.156 mg/kg-day and the LOEL (M, Gene expression_Cyp2b2) was 0.156 mg/kg-day. The LOEL (M, Gene expression_Cyp4a1) was 0.156 mg/kg-day, the LOEL (M, Hematology_Erythrocytes) was 2.5 mg/kg-day and the NOEL (M, Hematology_Hematocrit) was 2.5 mg/kg-day. The NOEL (M, Hematology_Hemoglobin) was 2.5 mg/kg-day, the LOEL (M, Hematology_Mean corpuscular hemoglobin concentration) was 0.625 mg/kg-day and the LOEL (M, Hematology_Mean corpuscular volume) was 1.25 mg/kg-day. It also gave an NOEL (M, Hematology_Platelets) of 2.5 mg/kg-day, an LOEL (M, Hematology_Reticulocytes) of 1.25 mg/kg-day and an LOEL (M, Nonneoplastic effects_Bone marrow - Hypocellularity) of 2.5 mg/kg-day. For the same compound, the LOEL (M, Nonneoplastic effects_Epididymis - Duct, exfoliated germ cell) was 2.5 mg/kg-day, the NOEL (M, Nonneoplastic effects_Epididymis - Epithelium, apoptosis) was 2.5 mg/kg-day and the NOEL (M, Nonneoplastic effects_Epididymis - Hypospermia) was 2.5 mg/kg-day. For the same compound, the NOEL (M, Nonneoplastic effects_Forestomach - Epithelium, hyperplasia) was 2.5 mg/kg-day, the NOEL (M, Nonneoplastic effects_Forestomach - Inflammation, chronic active) was 2.5 mg/kg-day and the NOEL (M, Nonneoplastic effects_Kidney - Nephropathy, chronic progressive) was 2.5 mg/kg-day. For the same compound, the NOEL (M, Nonneoplastic effects_Liver - Hepatocyte, Necrosis) was 2.5 mg/kg-day, the LOEL (M, Nonneoplastic effects_Liver - Hepatocyte, cytoplasmic alteration) was 0.625 mg/kg-day and the LOEL (M, Nonneoplastic effects_Liver - Hepatocyte, hypertrophy) was 1.25 mg/kg-day. It also gave an LOEL (M, Nonneoplastic effects_Liver - Hepatocyte, vacuolization cytoplasmic) of 1.25 mg/kg-day, an NOEL (M, Nonneoplastic effects_Lymph nodes - Mandibular, atrophy) of 2.5 mg/kg-day and an NOEL (M, Nonneoplastic effects_Lymph nodes - Mesenteric, atrophy) of 2.5 mg/kg-day. It also gave an NOEL (M, Nonneoplastic effects_Nose - Olfactory epithelium, degeneration) of 2.5 mg/kg-day, an NOEL (M, Nonneoplastic effects_Nose - Olfactory epithelium, hyperplasia) of 2.5 mg/kg-day and an NOEL (M, Nonneoplastic effects_Nose - Olfactory epithelium, inflammation, suppurative) of 2.5 mg/kg-day. The NOEL (M, Nonneoplastic effects_Nose - Respiratory epithelium, hyperplasia) was 2.5 mg/kg-day, the NOEL (M, Nonneoplastic effects_Nose - Respiratory epithelium, inflammation, chronic active) was 2.5 mg/kg-day and the NOEL (M, Nonneoplastic effects_Spleen - Atrophy) was 2.5 mg/kg-day. It also gave an NOEL (M, Nonneoplastic effects_Spleen - Extramedullary hematopoiesis, increased) of 2.5 mg/kg-day, an LOEL (M, Nonneoplastic effects_Testes - Germinal epithelium, degeneration) of 2.5 mg/kg-day and an LOEL (M, Nonneoplastic effects_Testes - Interstitial cell, atrophy) of 1.25 mg/kg-day. The LOEL (M, Nonneoplastic effects_Testes - Seminiferous tubule, spermatid retention) was 2.5 mg/kg-day, the LOEL (M, Nonneoplastic effects_Thymus - Atrophy) was 2.5 mg/kg-day and the LOEL (M, Nonneoplastic effects_Thymus - Lymphocyte, apoptosis) was 1.25 mg/kg-day. For the same compound, the NOEL (M, Nonneoplastic effects_Thyroid gland - Follicular cell hypertrophy) was 2.5 mg/kg-day, the LOEL (M, Organ weights_Liver - Absolute) was 0.156 mg/kg-day and the LOEL (M, Organ weights_Liver - Relative) was 0.156 mg/kg-day. For the same compound, the LOEL (M, Organ weights_R. adrenal gland - Absolute) was 0.156 mg/kg-day, the LOEL (M, Organ weights_R. adrenal gland - Relative) was 2.5 mg/kg-day and the LOEL (M, Organ weights_R. kidney - Absolute) was 2.5 mg/kg-day. For the same compound, the LOEL (M, Organ weights_R. kidney - Relative) was 0.625 mg/kg-day, the LOEL (M, Organ weights_R. testis - Absolute) was 2.5 mg/kg-day and the LOEL (M, Organ weights_Spleen - Absolute) was 1.25 mg/kg-day. It also gave an LOEL (M, Organ weights_Spleen - Relative) of 2.5 mg/kg-day, an LOEL (M, Organ weights_Thymus - Absolute) of 1.25 mg/kg-day and an LOEL (M, Organ weights_Thymus - Relative) of 1.25 mg/kg-day. For the same compound, the NOEL (M, Organ weights_Thyroid gland - Absolute) was 2.5 mg/kg-day, the LOEL (M, Organ weights_Thyroid gland - Relative) was 1.25 mg/kg-day and the LOEL (M, Reproductive toxicity_Altered sperm parameters) was 2.5 mg/kg-day. For the same compound, the NOEL (M, Survival rates) was 2.5 mg/kg-day and the LOEL (M, body weight) was 1.25 mg/kg-day.

Reference: EPA's ToxValDB 9.5
